Laboratory results as given in US8063012B2, “Neuroprotective peptide inhibitors of AP-1 signaling and uses therefor” (Phylogica Limited, priority 2006, dated 2011).
Entries after “also recorded” stand apart in the source; their conditions may differ. Non-standard residues stand in square brackets, D forms with d. Residues, ends and D or L forms follow the SMILES beside them. No end group written: not given here.

What was measured:
[1] = system: primary cortical neuronal cultures; assay: Glutamate excitotoxicity in primary cortical neuronal cultures, neuronal viability by MTS assay; type: cell-based, rat; settings: for neuronal viability following glutamate excitotoxicity: MTS 18 h
Protocol: Neurons were resuspended in Neurobasal (NB; Invitrogen) containing 2% B27 supplement (B27; Invitrogen). Before seeding, culture vessels comprising either a 96-well plastic plate or 24-well plastic plate with 13 mm glass coverslips (ProSciTech, Australia), were coated with poly-D-lysine (50 μg/mL; 70-150K; Sigma) and incubated overnight at room temperature. […] Neurons were plated to obtain approximately 10,000 viable neurons for each well of a 96-well plate, or 200,000 viable neurons per well of a 24-well plate, on day in vitro (DIV) […]. […] On DIV 4, one third of the culture medium was removed and replaced with fresh NB/2% B27 containing the mitotic inhibitor, cytosine arabinofuranoside (Sigma) at 1 μM concentration. On DIV 8, one half of the culture medium was replaced with NB/2% B27.
(§1) To induce glutamate excitotoxicity in the cortical neuronal cultures (96-well plate format), 50 μl of conditioned media containing 200 μM glutamate was added to culture wells containing 50 μl conditioned media (100 μM final glutamate concentration). Cultures were incubated at 37° C. in a CO2 incubator for 5 minutes, after which time the media was replaced with 100 μl of 50% NB/2% N2 and 50% balance salt solution (NB/N2:BSS).
Untreated and glutamate-treated control samples received media additions with and without glutamate respectively.
(§2) Eighteen hours after glutamate exposure, neuronal cultures were examined by light microscopy for qualitative assessment of neuronal damage. Neuronal viability was quantitatively measured by 3-(4,5,dimethyliazol-2-yl)-5-(3-carboxymethoxy-phenyl)-2-(4-sulfophenyl)-2H-tetrazolium salt (MTS) assay (Promega, Australia). The MTS assay measures the mitochondrial conversion of the tetrazolium salt to a water-soluble brown formazan salt, which is detected spectrophotometrically at 495 nm. MTS absorbance data was converted to reflect proportional cell viability relative to both the untreated and glutamate treated controls. […] All assays were performed with quadruplicate sister neuronal cultures repeated a minimum of four times independently.

[2] = system: primary cortical neuronal cultures; assay: Light microscopy assessment of neuronal damage after glutamate exposure; type: cell-based, rat; settings: for neurons that appeared intact and viable: Sprague-Dawley, rat, 18 hours; for neuronal morphology (cellular rounding, survival) after glutamate exposure: light microscopy, one hour to 18 hours post glutamate exposure
Protocol: Cortical neuronal cultures were established as described by Meloni et al., Neuroscience 108, 17-26, 2001. Briefly, cortical tissue from E18-E19 Sprague-Dawley rats was dissociated in Dulbelcco's Modified Eagle Medium (DMEM; Invitrogen, Australia) supplemented with 1.3 mM L-cysteine, 0.9 mM NaHCO3, 10 units/ml papain (Sigma, USA) and 50 units/ml DNase (Sigma) and washed in cold DMEM/10% (v/v) horse serum. Neurons were resuspended in Neurobasal (NB; Invitrogen) containing 2% B27 supplement (B27; Invitrogen). Before seeding, culture vessels comprising either a 96-well plastic plate or 24-well plastic plate with 13 mm glass coverslips (ProSciTech, Australia), were coated with poly-D-lysine (50 μg/mL; 70-150K; Sigma) and incubated overnight at room temperature. The poly-D-lysine was removed and replaced with NB (containing 2% B27; 4% fetal bovine serum; 1% horse serum; 62.5 μM glutamate; 25 μM 2-mercaptoethanol; and 30 μg/mL streptomycin and 30 μg/mL penicillin). Neurons were plated to obtain approximately 10,000 viable neurons for each well of a 96-well plate, or 200,000 viable neurons per well of a 24-well plate, on day in vitro (DIV) […]. Neuronal cultures were maintained in a CO2 incubator (5% CO2, 95% air balance, 98% humidity) at 37° C. On DIV 4, one third of the culture medium was removed and replaced with fresh NB/2% B27 containing the mitotic inhibitor, cytosine arabinofuranoside (Sigma) at 1 μM concentration. On DIV 8, one half of the culture medium was replaced with NB/2% B27. Cultures were used on DIV 11 or 12, and consisted of >95% neurons.
as §1, §2

[3] = 2 μM extracellular concentration
[4] = 5 μM extracellular peptide, 100 μM glutamate 5 min, no insult = 100%
[5] = 1 μM extracellular concentration

Row | Compound | neuroprotection in the glutamate model ([1]; 5 μM extracellular peptide) | neuroprotection in the glutamate model ([1]; 5 μM extracellular peptide, listed as PYC35L-Scram-TAT) | neurons that appeared intact and viable [2] | neuronal morphology (cellular rounding, survival) after glutamate exposure [2] | neuroprotection in the glutamate model ([1]; 5 μM extracellular peptide, listed as PYC36L Scram-TAT) | neuroprotection following glutamate excitotoxicity [1, 3] | neuronal viability following glutamate excitotoxicity [1, 4] [%] | extracellular concentration providing significant neuroprotection ([1]; glutamate excitotoxicity, dose response 0.1-10 μM) [µM] | neuroprotection following glutamate excitotoxicity [1, 5] | neuroprotection compared with JNKI-1D-TAT ([1]; 1 μM concentration) | neuronal viability following glutamate excitotoxicity ([1]; 1 μM extracellular peptide) [%]
1 | CC[C@@H](C)[C@@H](NC(=O)CNC(=O)[C@@H](CCC(=O)O)NC(=O)[C@@H](CO)NC(=O)[C@@H](CCCNC(=N)N)NC(=O)[C@@H](CCC(=O)O)NC(=O)[C@H](NC(=O)[C@H](N)CCCCN)[C@H](C)CC)C(=O)N[C@H](CO)C(=O)N[C@H](CCC(N)=O)C(=O)N[C@H](CO)C(=O)N[C@H](C)C(=O)N[C@H](CCCNC(=N)N)C(=O)N[C@H](CO)C(=O)N[C@H](CCCNC(=N)N)C(=O)NCC(=O)N[C@H](Cc1ccc(O)cc1)C(=O)N[C@H](CO)C(=O)NCC(=O)N[C@H](CCCNC(=N)N)C(=O)N[C@H](CCCNC(=N)N)C(=O)N[C@H](CCCNC(=N)N)C(=O)N[C@H](CCC(N)=O)C(=O)N[C@H](CCCNC(=N)N)C(=O)N[C@H](CCCNC(=N)N)C(=O)N[C@H](CCCCN)C(=O)N[C@H](CCCCN)C(=O)N[C@H](CCCNC(=N)N)C(=O)NCC(=O)O [PYC35D Scram-TAT, reference compound] (H-[dK][dI][dE][dR][dS][dE]G[dI][dS][dQ][dS][dA][dR][dS][dR]G[dY][dS]G[dR][dR][dR][dQ][dR][dR][dK][dK][dR]G-OH; N-terminus and C-terminus assumed) | failed to provide neuroprotection | reduced neuroprotection | 2-5% | displayed cellular rounding |  |  |  |  |  |  | 
2 | CC[C@@H](C)[C@@H](NC(=O)CNC(=O)CNC(=O)[C@@H](CCCNC(=N)N)NC(=O)[C@@H](CCCNC(=N)N)NC(=O)[C@H](N)CCCCN)C(=O)N[C@H](CC(C)C)C(=O)N[C@H](CCCNC(=N)N)C(=O)N[C@H](Cc1ccc(O)cc1)C(=O)NCC(=O)N[C@H](CCC(N)=O)C(=O)N1CCC[C@@H]1C(=O)N[C@H](CCC(N)=O)C(=O)N[C@H](CO)C(=O)N[C@H](CCC(N)=O)C(=O)NCC(=O)N[C@H](CCCNC(=N)N)C(=O)N[C@H](CCCNC(=N)N)C(=O)N[C@H](CCCNC(=N)N)C(=O)N[C@H](CCC(N)=O)C(=O)N[C@H](CCCNC(=N)N)C(=O)N[C@H](CCCNC(=N)N)C(=O)N[C@H](CCCCN)C(=O)N[C@H](CCCCN)C(=O)N[C@H](CCCNC(=N)N)C(=O)NCC(=O)O [PYC36D Scram-TAT, reference compound] (H-[dK][dR][dR]GG[dI][dL][dR][dY]G[dQ][dP][dQ][dS][dQ]G[dR][dR][dR][dQ][dR][dR][dK][dK][dR]G-OH; N-terminus and C-terminus assumed) | failed to provide neuroprotection |  | 2-5% | displayed cellular rounding | reduced neuroprotection |  |  |  |  |  | 
3 | GRKKRRQRRRGAYQSIRSGGIESSSKRER [PYC35L-TAT] |  |  |  | did not begin to round and survived glutamate excitotoxicity |  | neuroprotective trend | 42 | ≥ 2 |  |  | 
4 | GRKKRRQRRRGGLQGRRQPGQQPQGRWSGRALPAHR [PYC38/39L-TAT] |  |  |  | did not begin to round and survived glutamate excitotoxicity |  | initial significant neuroprotection | 69 |  | neuroprotective trend |  | 
5 | GRKKRRQRRRGGLQGRRRQGYQSIKP [PYC36L-TAT] |  |  |  | did not begin to round and survived glutamate excitotoxicity |  |  | 64 |  | significant level of neuroprotection | greater neuroprotection than JNKI-1D-TAT | 30
6 | GRKKRRQRRRGLINQSYAYPYIY [PYC19L-TAT] |  |  |  | did not begin to round and survived glutamate excitotoxicity |  | neuroprotective trend | 32 |  | neuroprotective trend; also recorded: significant neuroprotection |  | 
7 | GRKKRRQRRRGVSINQEHHRLLPL [PYC41L-TAT] |  |  |  | did not begin to round and survived glutamate excitotoxicity |  | initial significant neuroprotection | 38 |  | neuroprotective trend |  | 
